A compilation of properties of binary mixtures (doi:10.1021/acs.iecr.1c02970)

Assay: xn = mol fraction of the nth substance listed
Conditions: 100 kPa

CC[n+]1ccn(C)c1.CS(=O)(=O)[O-] + O
Conditions | electrical conductivity [S/m] | speed of sound [m/s] | viscosity [mPa·s]
318.15 K, x1 = 0.0181 | – | 1615.9 | –
318.15 K, x1 = 0.056 | – | 1727.8 | –
318.15 K, x1 = 0.0749 | – | 1763.5 | –
318.15 K, x1 = 0.113 | – | 1806.2 | –
318.15 K, x1 = 0.2741 | – | 1811.2 | –
318.15 K, x1 = 0.3671 | – | 1791.3 | –
318.15 K, x1 = 0.489 | – | 1766.7 | –
318.15 K, x1 = 0.6064 | – | 1748.6 | –
318.15 K, x1 = 0.7708 | – | 1731.9 | –
318.15 K, x1 = 0.9157 | – | 1719.1 | –
318.15 K, x2 = 0.0082 | – | 1717.9 | –
323.15 K, x1 = 0.002 | 1.2 | – | –
323.15 K, x1 = 0.0165 | 5.73 | – | –
323.15 K, x1 = 0.0181 | – | 1616.5 | –
323.15 K, x1 = 0.028 | 7.33 | – | –
323.15 K, x1 = 0.056 | – | 1721.3 | –
323.15 K, x1 = 0.0674 | – | – | 1.468
323.15 K, x1 = 0.07 | 8.43 | – | –
323.15 K, x1 = 0.0749 | – | 1754.8 | –
323.15 K, x1 = 0.0945 | – | 1779.5 | –
323.15 K, x1 = 0.1089 | – | – | 2.428
323.15 K, x1 = 0.1122 | 7.28 | – | –
323.15 K, x1 = 0.1848 | – | – | 4.37
323.15 K, x1 = 0.2741 | – | 1799 | –
323.15 K, x1 = 0.489 | – | 1754.8 | –
323.15 K, x1 = 0.6951 | – | 1727.9 | –
323.15 K, x1 = 0.7708 | – | 1720 | –
323.15 K, x1 = 0.9157 | – | 1707.2 | –
323.15 K, x1 = 0.9357 | – | – | 44.06
323.15 K, x2 = 0.0082 | – | 1705.9 | –
328.15 K, x1 = 0.0181 | – | 1616.2 | –
328.15 K, x1 = 0.0375 | – | 1672.1 | –
328.15 K, x1 = 0.056 | – | 1714.4 | –
328.15 K, x1 = 0.0749 | – | 1745.8 | –
328.15 K, x1 = 0.0945 | – | 1769 | –
328.15 K, x1 = 0.113 | – | 1783.9 | –
328.15 K, x1 = 0.1833 | – | 1800.7 | –
328.15 K, x1 = 0.2741 | – | 1786.7 | –
328.15 K, x1 = 0.489 | – | 1743 | –
328.15 K, x1 = 0.6064 | – | 1725 | –
328.15 K, x1 = 0.6951 | – | 1716.1 | –
328.15 K, x1 = 0.7708 | – | 1707.9 | –
328.15 K, x1 = 0.9157 | – | 1695.4 | –
333.15 K, x1 = 0.002 | 1.38 | – | –
333.15 K, x1 = 0.0165 | 6.66 | – | –
333.15 K, x1 = 0.0177 | – | – | 0.642
333.15 K, x1 = 0.0181 | – | 1615.2 | –
333.15 K, x1 = 0.028 | 8.53 | – | –
333.15 K, x1 = 0.0357 | – | – | 0.848
333.15 K, x1 = 0.0375 | – | 1667.4 | –
333.15 K, x1 = 0.0489 | 9.85 | – | –
333.15 K, x1 = 0.0674 | – | – | 1.214
333.15 K, x1 = 0.07 | 9.96 | – | –
333.15 K, x1 = 0.0749 | – | 1736.4 | –
333.15 K, x1 = 0.0945 | – | 1758.3 | –
333.15 K, x1 = 0.1089 | – | – | 1.965
333.15 K, x1 = 0.1122 | 8.86 | – | –
333.15 K, x1 = 0.113 | – | 1772.4 | –
333.15 K, x1 = 0.1848 | – | – | 3.473
333.15 K, x1 = 0.2034 | 6.33 | – | –
333.15 K, x1 = 0.2741 | – | 1774.2 | –
333.15 K, x1 = 0.3752 | 3.67 | – | –
333.15 K, x1 = 0.4263 | – | – | 9.38
333.15 K, x1 = 0.6064 | – | 1713.3 | –
333.15 K, x1 = 0.6951 | – | 1704.2 | –
333.15 K, x1 = 0.7708 | – | 1696.1 | –
333.15 K, x1 = 0.9157 | – | 1683.7 | –
333.15 K, x1 = 0.9339 | 1.16 | – | –
333.15 K, x1 = 0.9357 | – | – | 29.98
333.15 K, x2 = 0.0082 | – | 1682.3 | –
343.15 K, x1 = 0.002 | 1.59 | – | –
343.15 K, x1 = 0.0177 | – | – | 0.551
343.15 K, x1 = 0.0181 | – | 1610.8 | –
343.15 K, x1 = 0.028 | 9.78 | – | –
343.15 K, x1 = 0.0357 | – | – | 0.735
343.15 K, x1 = 0.0375 | – | 1656.3 | –
343.15 K, x1 = 0.056 | – | 1690.9 | –
343.15 K, x1 = 0.0674 | – | – | 1.026
343.15 K, x1 = 0.07 | 11.6 | – | –
343.15 K, x1 = 0.0749 | – | 1716.8 | –
343.15 K, x1 = 0.0945 | – | 1736.2 | –
343.15 K, x1 = 0.1089 | – | – | 1.629
343.15 K, x1 = 0.1122 | 10.4 | – | –
343.15 K, x1 = 0.113 | – | 1748.7 | –
343.15 K, x1 = 0.1833 | – | 1762.7 | –
343.15 K, x1 = 0.1848 | – | – | 2.831
343.15 K, x1 = 0.2034 | 7.58 | – | –
343.15 K, x1 = 0.2741 | – | 1749.3 | –
343.15 K, x1 = 0.3671 | – | 1730.3 | –
343.15 K, x1 = 0.3752 | 4.5 | – | –
343.15 K, x1 = 0.489 | – | 1707.6 | –
343.15 K, x1 = 0.6951 | – | 1680.7 | –
343.15 K, x1 = 0.9157 | – | 1660.7 | –
343.15 K, x1 = 0.9339 | 1.55 | – | –
343.15 K, x1 = 0.9357 | – | – | 21.61
343.15 K, x2 = 0.0082 | – | 1659 | –
353.15 K, x1 = 0.002 | 1.81 | – | –
353.15 K, x1 = 0.0177 | – | – | 0.475
353.15 K, x1 = 0.028 | 11.1 | – | –
353.15 K, x1 = 0.0357 | – | – | 0.625
353.15 K, x1 = 0.07 | 13.2 | – | –
353.15 K, x1 = 0.1089 | – | – | 1.37
353.15 K, x1 = 0.1122 | 12.1 | – | –
353.15 K, x1 = 0.2034 | 8.9 | – | –
353.15 K, x1 = 0.9357 | – | – | 16.3
